# Results from patent US8273562B2, “Method for producing 4-hydroxy-L-isoleucine” (Ajinomoto Co., Inc., priority 2006, dated 2012).
# What was measured:
# [1] = target: T1, L-Ile hydroxylase (Bacillus thuringiensis, UniProt E2GIN1); experiment: Effects of addition of cofactors on 4-hydroxyisoleucine production with purified enzyme; assay type: biochemical; conditions: purified enzyme + 5 mM L-Ile + 5 mM cofactor; 100 mM HEPES pH 6
# T1 construct: made in house; host or cells: Bacillus thuringiensis 2-e-2 (natural producer; enzyme purified by chromatography, not recombinant)
# T1 sequence (E2GIN1 2-240): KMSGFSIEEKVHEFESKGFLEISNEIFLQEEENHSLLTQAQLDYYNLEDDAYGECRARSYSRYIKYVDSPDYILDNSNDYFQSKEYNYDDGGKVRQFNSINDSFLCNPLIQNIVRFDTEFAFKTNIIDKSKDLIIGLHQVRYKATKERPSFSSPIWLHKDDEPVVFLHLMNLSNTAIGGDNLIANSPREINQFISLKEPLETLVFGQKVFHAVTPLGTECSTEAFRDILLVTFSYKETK
# From the text: The effects of cofactors on the production of 4-hydroxyisoleucine by hydroxylation of Ile were examined by using the purified enzyme.
# [2] = target: T2, enzyme in 2-e-2 cell lysate (Bacillus thuringiensis, UniProt E2GIN1); experiment: Effects of enzyme cofactors on 4-hydroxyisoleucine production with 2-e-2 cell lysate; assay type: biochemical; conditions: Lysate + 5 mM Ile + 5 mM cofactor; 50 mM HEPES pH 7
# T2 construct: the collected and washed 2-e-2 cells were disrupted using a mortar; endogenous in cells; host or cells: Bacillus thuringiensis 2-e-2 cell lysate
# T2 sequence (E2GIN1 2-240): as above
# Experimental: (§1) The cells were cultured in the AMKP medium until OD660 of 3.2 was achieved, then the collected and washed 2-e-2 cells were disrupted using a mortar, and suspended in a buffer (50 mM HEPES (pH 7.0), 10% of glycerol, Complete Mini (Roche)) until a suspension (lysate) is obtained having a protein concentration of about 10 mg/ml including centrifugation precipitates. The centrifugation precipitates were finally suspended in physiological saline of the same volume as the cell lysate. These were each mixed with an equal volume of a 2× dioxygenase reaction mixture (10 mM Ile, […], 10 mM 2-oxoglutaric acid, 10 mM ascorbic acid, 100 mM HEPES (pH 7.0)), and the reaction proceeded at 30° C. for 1 hour. Similarly, resting cells used for the preparation of the cell lysate were washed, and suspended in physiological saline at a concentration 10 times that in the culture broth, the suspension was mixed with an equal volume of the 2× dioxygenase reaction mixture, and the reaction proceeded.
# By using a cell lysate of the 2-e-2 cells in the logarithmic growth phase, the effects of cofactors on the 4-hydroxyisoleucine production reaction by hydroxylation of Ile were examined. A 50 mM HEPES (pH 7) reaction mixture was used containing final concentrations of 5 mM Ile and 5 mM of one of various cofactors with a cell lysate of the 2-e-2 cells (lysate) in the logarithmic growth phase prepared by the method described in <5> above, and the amount of 4-hydroxyisoleucine produced was measured.
# [3] = target: T1, L-Ile hydroxylase; experiment: Substrate reaction characteristics of purified L-Ile hydroxylase; assay type: biochemical; conditions: 5 mM amino acid; purified enzyme; pH 6, 30° C., 1 hour; HPLC
# Experimental: By using L-Ile hydroxylase prepared as described in Example 2, the reaction characteristics for various amino acids were evaluated. The enzyme solution and the reaction mixture were mixed, and then the reaction proceeded at 30° C. for 1 hour, and the production of new substances was evaluated by HPLC analysis. The enzymatic reaction solution contained 5 mM amino acid, 5 mM Fe^2+, 5 mM 2-oxoglutaric acid, 5 mM ascorbic acid, and 100 mM HEPES (pH 6). In addition to L-isoleucine, the amino acids D-isoleucine, L-leucine, L-valine, L-glutamic acid, and L-lysine were also individually evaluated. The produced 4-hydroxyisoleucine was analyzed as in Example 1. Like when using a cell lysate, production of a new substance could not be confirmed for amino acids other than L-isoleucine.
# [4] = target: T2, enzyme in 2-e-2 cell lysate; experiment: Substrate reaction characteristics of enzyme in 2-e-2 cell lysate; assay type: biochemical; conditions: 5 mM amino acid, pH 7, 30° C., 1 hour, TLC or amino acid analysis
# Experimental: as §1
# By using a cell lysate prepared from 2-e-2 cells at OD660 of 7 according to the method described in <5>, the reaction characteristics for various amino acids were evaluated. The cell lysate and a substrate solution were mixed, then the reaction proceeded at 30° C. for 1 hour, and the production of new substances was evaluated by TLC or amino acid analysis. The substrate reaction mixture contained 5 mM amino acid, 5 mM Fe^2+, 5 mM 2-oxoglutaric acid, 5 mM ascorbic acid, and 100 mM HEPES (pH 7). In addition to L-isoleucine, the amino acids L-leucine, L-valine, L-glutamic acid, and L-lysine were each individually evaluated. The 4-hydroxyisoleucine which was produced was analyzed by the method described in Example 1. Production of amino acids other than L-isoleucine was not observed.
# [5] = system: strain 2-e-2; experiment: Effect of addition of cofactors on AMKP production in culture of strain 2-e-2; assay type: cell-based, Bacillus thuringiensis; conditions: culture supernatant; 30° C., 22 hours; control 1.34
# Experimental: The possibility of molecular oxygen uptake by hydroxylation was considered as a possible mechanism for the production of AMKP. Accordingly, the production of AMKP was analyzed when NAD(P)H, or Fe^2+, 2-oxoglutaric acid and ascorbic acid, were added during the culture of the 2-e-2 strain. NAD(P)H is a cofactor of monooxygenases and Fe^2+, 2-oxoglutaric acid and ascorbic acid are cofactors of dioxygenases.
# The culture medium used in the previous screening was used as a control, and the production of AMKP was compared among cultures containing the cofactors as shown in Table 3. The culture temperature was 30° C., and the culture time was 22 hours. The concentration of AMKP in the culture supernatants was measured.
# [6] = system: dioxygenase activity in fenugreek extract; conditions: cited from earlier work
# [7] = target: IDO(Lys,23) (Bacillus thuringiensis, UniProt E2GIN1)
# IDO(Lys,23), sequence (E2GIN1 2-240): as above
# [8] = target: T1, L-Ile hydroxylase; experiment: Effects of inhibitors on 4-hydroxyisoleucine production by purified L-Ile hydroxylase; assay type: biochemical; conditions: 10 mM inhibitor; 4-hydroxyisoleucine production with no inhibitor = 100%; pH 6, 30° C., 1 hour
# Experimental: Each fraction was reacted using an Ile hydroxylation activity reaction mixture (100 mM HEPES (pH 6.0), 5 mM L-Ile, 5 mM Fe^2+, 5 mM 2-oxoglutaric acid, 5 mM ascorbic acid at final concentrations) at 30° C. for 30 minutes. The enzyme was inactivated at 100° C., and then the amount of 4-hydroxyisoleucine was quantified by the aforementioned AMKP and HIL separation and measurement method. The 4-hydroxyisoleucine referred to in the subsequent analysis indicates a substance that is substantially composed of the isomer having the same retention time as that of the naturally occurring 4-hydroxyisoleucine. The enzyme activity that produces 1 nmol of HIL per minute was defined as 1 U.
# By using L-Ile hydroxylase prepared as described in Example 2, the effect of inhibitors on the production of 4-hydroxyisoleucine were examined. The enzymatic reaction solution contained 5 mM Ile, 5 mM Fe^2+, 5 mM 2-oxoglutaric acid, 5 mM ascorbic acid, and 100 mM HEPES (pH 6), the reaction temperature was 30° C., and the reaction time was 1 hour. The amount of 4-hydroxyisoleucine produced when 10 mM of each inhibitor (EDTA, Cu^2+, Zn^2+) was added to the reaction system was measured. These values are relative to the 4-hydroxyisoleucine production observed with no inhibitor, which was set as 100%. The isoleucine hydroxylation activity was lost in the presence of the inhibitors.
# [9] = target: T2, enzyme in 2-e-2 cell lysate; experiment: Effect of inhibitors on 4-hydroxyisoleucine production in the 2-e-2 cell lysate; assay type: biochemical; conditions: 10 mM inhibitor, pH 6, 30° C., 1 hour
# Experimental: as §1
# By using a cell lysate prepared from 2-e-2 cells at OD660 of 7 according to the method described in <5>, the effects of inhibitors on the 4-hydroxyisoleucine production were examined. […] The dioxygenase reaction mixture contained 5 mM Ile, 5 mM Fe^2+, 5 mM 2-oxoglutaric acid, 5 mM ascorbic acid, and 100 mM HEPES (pH 6), the reaction temperature was 30° C., and the reaction time was 1 hour. The amount of 4-hydroxyisoleucine which was produced when 10 mM of each inhibitor (EDTA, Cu^2+, Zn^2+) was added to the reaction system was measured. 4-Hydroxyisoleucine was analyzed by the method described in <2>. The isoleucine hydroxylation activity was inhibited by the inhibitors.
# [10] = Production of HIL from Ile with crude enzyme solution of E. coli expressing ido genes; assay type: biochemical, Escherichia coli; conditions: 28° C., 3 hours, control (pET21b) 11
# Experimental: The plasmid expressing the ido gene from B. cereus ATCC 14579, B. thuringiensis AKU238, or B. weihenstephanensis KBAB4, which was constructed in Example 8, was introduced into E. coli Rosetta2 (DE3), and the transformants were cultivated with shaking in LB medium supplemented with 50 μg/ml ampicilin (preculture). By seeding the preculture broth in 50 ml LB medium at 1%, the main culture was carried out at 37° C. 2 hours after the start of the cultivation, IPTG was added to a final concentration of 1 mM, and the cultivation was carried out for an additional 3 hours. After completion of the cultivation, the cells were harvested, washed, suspended in 1 ml of 20 mM Tris-HCl (pH 7.6), and disrupted with a sonicator (INSONATOR 201M, KUBOTA). The lysate was centrifuged at 15000 rpm for 10 minutes, and the supernatant was used as a crude enzyme solution.
# By using the crude enzyme solution prepared in (1), the conversion of Ile to HIL was measured. The reaction mixture is described below. The reaction mixture was reacted with shaking (300 rpm) at 28° C. for 3 hours, and then the amount of HIL produced was determined by HPLC.
molecule,measurement,setting,value
"O=C1O[C@H]([C@@H](O)CO)C(O)=C1O [Ascorbate, ascorbic acid]",HIL,[1],0.00 mM
same,HIL production,[2],0.00 mM
"CC(C)C[C@H](N)C(=O)O [L-Leucine, L-leucine]",Product (reactivity for each amino acid),[3],None
same,Product (reactivity for various amino acids),[4],None
"CC[C@@H](C)[C@@H](N)C(=O)O [D-Isoleucine, D-isoleucine]",Product (reactivity for each amino acid),[3],None
NAD(P)H,AMKP concentration,[5],1.58 mM
"NCCCC[C@H](N)C(=O)O [L-Lysine, L-lysine]",Product (reactivity for each amino acid),[3],None
same,Product (reactivity for various amino acids),[4],None
"N[C@@H](CCC(=O)O)C(=O)O [L-Glutamic acid, L-glutamic acid]",Product (reactivity for each amino acid),[3],None
same,Product (reactivity for various amino acids),[4],None
"CC(C)[C@H](N)C(=O)O [L-Valine, L-valine]",Product (reactivity for each amino acid),[3],None
same,Product (reactivity for various amino acids),[4],None
"CC[C@H](C)[C@H](N)C(=O)O [L-Isoleucine, L-isoleucine]",Product (reactivity for each amino acid),[3],Produced (HIL)
same,isoleucine concentration that inhibits the activity of the enzyme,[6],≥ 20 mM
same,Product (reactivity for various amino acids),[4],Produced (HIL)
O=C(O)CN(CCN(CC(=O)O)CC(=O)O)CC(=O)O [EDTA],"activity of IDO(Lys,23) in the presence of the substance",[7],completely blocked
same,Relative activity (%),[8],0%
same,isoleucine hydroxylation activity in presence of inhibitor,[9],inhibited
[Cu+2] [Cu^2+],Relative activity (%),[8],0%
same,isoleucine hydroxylation activity in presence of inhibitor,[9],inhibited
[Zn+2] [Zn^2+],Relative activity (%),[8],0%
same,isoleucine hydroxylation activity in presence of inhibitor,[9],inhibited
"O=C(O)CCC(=O)C(=O)O [α-KG, 2-oxoglutaric acid]",HIL,[1],0.00 mM
same,HIL production,[2],0.00 mM
[Fe+2] [Fe^2+],HIL,[1],0.00 mM
same,AMKP concentration,[5],2.53 mM
same,HIL production,[2],0.00 mM
"B. thuringiensis israelensis ATCC35646: crude enzyme solution with IDO from B. thuringiensis israelensis ATCC 35646, SEQ ID NO: 8 (protein, listed as Bacillus thuringiensis) KMSGFSIEEKVHEFESKGFLEISNEIFLQEEENHSLLTQAQLDYYNLEDDAYGECRARSYSRYIKYVDSPDYILDNSNDYFQSKEYNYDDGGKVRQFNSINDSFLCNPLIQNIVHFDTEFAFKTNIIDKSKDLIIGLHQVRYKATKERPSFSSPIWLHKDDEPVVFLHLMNLSNTAIGGDNLIANSPREINQFISLKEPLETLVFGQKVFHAVTPLGTECSTEAFRDILLVTFSYKETK","Amount of HIL produced from Ile, HIL",[10],2150 µM
"B. thuringiensis AKU238: crude enzyme solution of E. coli expressing ido gene from B. thuringiensis AKU238, SEQ ID NO: 17 (protein, listed as Bacillus thuringiensis) MEVFIMTFVLSKMSGFSIEEKVHEFESKGFLEISNEIFLQEEENHRLLTQAQLDYYNLEDDAYGECRARSYSRYIKYVDSPDYILDNSNDYFQSKEYNYDDGGKVRQFNSINDSFLCNPLIQNIVRFDTEFAFKTNIIDTSKDLIIGLHQVRYKATKERPSFSSPIWLHKDDEPVVFLHLMNLSNTAIGGDNLIANSPREINQFISLKEPLETLVFGQKVFHAVTPLGTECSTEAFRDILLVTFSYKETK","Amount of HIL produced from Ile, HIL",[10],2016 µM
"B. weihenstephanensis KBAB4: crude enzyme solution of E. coli expressing ido gene from B. weihenstephanensis KBAB4, SEQ ID NO: 21 (protein, listed as Bacillus weihenstephanensis) MLTTVSNKTSSFDVEQKVHEFESNGYIQIFNDIFLQDQEDQALLTKAQLDYYSLQNDAYGECRARAYSRYIKYAGSSDYVLDTDNGYFQSEEYNYDDGGKIRNFNSITDEFLHNSLIEKIVRFDSEFASNTNILDTSKDLVIGLHQVRYKATRENPSFSSPIWLHKDDEPIVFLHLMNLSNTALGGDNLIANSPREINKLISLKDPLETLVFGQKVFHAVTPLGTECNTEALRDILLVTFSYKEPK","Amount of HIL produced from Ile, HIL",[10],3116 µM
